According to PMC7356761 (Molecules, 2020):
Entries after “also recorded” stand apart in the source; their conditions may differ.

Key:
[1] = tested on: H441 cells (wild-type EGFR); assay: Cellular uptake study, H441; type: cell-based, human; conditions: H441, 4 h incubation
Method: (§1) 3.8. Cellular Uptake Studies
(§2) Then, the cell culture was incubated in a serum-free medium containing [^125I]10 (3.7 kBq/well) for 4 h. The medium from each well was removed and the cells were washed with 1 mL of ice-cold PBS. Finally, all cell fractions were lysed twice with 0.5 mL of 1 M NaOH aqueous solution. The radioactivity of every fraction was determined by an auto well gamma counter. Total cell protein was determined using the Bicinchoninic Acid (BCA) Protein Assay Kit (Nacalai) protocol, which uses bovine serum albumin as a standard reference. […]. All data were expressed as percent dose per milligram of protein (% dose/mg protein) ± SD.

[2] = In vitro stability in PBS; type: physicochemical; conditions: 0.1 M PBS pH 7.4, 37 °C
Method: (§3) 3.7. In Vitro Stability Experiments
The in vitro stability of [^125I]10 was examined in phosphate buffered saline (PBS) and mouse plasma. Briefly, [^125I]10 solution (50 µL) in a sealed tube containing 0.1 M PBS pH 7.4 (450 µL) was incubated at 37 °C for 1 and 24 h. After incubation, the purities of radiotracers were analyzed by RP-HPLC with mobile phase system water (A) and methanol (B), B: 70–100%, 20 min using a Cosmosil® 5C18 MSII (4.6 ID × 150 mm) column, a flow rate 1 mL/min. The column temperature was kept at 40 °C.

[3] = tested on: H3255 cells (L858R active mutant EGFR); assay: Cellular uptake study, H3255; type: cell-based, human
Method: as §1, §2

[4] = In vitro stability in murine plasma; type: in vitro ADME, mouse; conditions: 37 °C
Method: as §3
The plasma was prepared by centrifugation of murine blood at 4 °C for 20 min at […]. The reaction was started by the addition of [^125I]10 (20 μL) in the plasma (180 µL). The mixture was incubated in a shaker at 300 rpm at 37 °C, which was carried out three times. Samples (100 µL) were taken at 0, 1 and 24 h and 100 µL acetonitrile, divided into five portions, was added for deproteinization of the plasma. The samples were left in the fridge for 15 min and then centrifuged at 4 °C for 15 min at […]. The supernatant was filtered through a pore size of 0.45 μm, then analyzed by RP-HPLC with a mobile phase gradient system water (A) and methanol (B), B: 70–100%, for 20 min using a Cosmosil® 5C18 MSII (4.6 ID × 150 mm) column at a flow rate of 1 mL/min. The column temperature was maintained at 40 °C. Radioactivity was measured by an auto well gamma counter.

[5] = tested on: H1975 cells (L858R/T790M active mutant EGFR); assay: Cellular uptake study, H1975; type: cell-based, human
Method: as §1, §2

[6] = Biodistribution in tumor-bearing mice, normal tissues; type: in vivo, mouse
Method: (§4) Male ddY mice (27–30 g, 6 weeks old) and female BALB/c nu/nu mice (12–17 g, 4 weeks old) were purchased from Japan SLC Inc. (Hamamatsu, Japan). The mice were housed in a cage with free access to food and water maintained at a constant temperature (23–25 °C) with a 12 h light/dark cycle. […] The tumor reached palpable size 2- and 3-weeks post-inoculation. Animal experiments were conducted in accordance with laboratory guidelines for the care and use of animals of Kanazawa University. The animal handling protocol was approved by the Kanazawa University Animal Care Committee (approval number: AP-163766). 3.10. Biodistribution Studies Mice were injected intravenously via the lateral tail vein with a saline solution of [^125I]10 (25 kBq, 100 μL) containing 1% tween-80 and 10% ethanol. The ddY mice were sacrificed at 10 min, 1, 4 and 24 h; meanwhile, the tumor-bearing mice were sacrificed at 1 and 4 h post injection. The selected tissues and organs were collected and weighed and their radioactivity was measured using an auto well gamma counter. […] The mice were sacrificed 1 h after the administration of radiotracer. The biodistribution data are expressed as percent injected dose per gram of tissue (% ID/g) along with the SD.

[7] = tested on: H3255 tumor; assay: Biodistribution in tumor-bearing mice, H3255 tumor; type: in vivo, mouse
Method: as §4

[8] = Blocking (1 h), CO-1686 30 mg/kg i.p. 1 h prior

For `C=CC(=O)Nc1cc([125I])cc(Nc2nc(Nc3ccc(N4CCN(C(C)=O)CC4)cc3OC)ncc2C(F)(F)F)c1` [[^125I]10], the cell uptake [1] was 8.95 % dose/mg protein, the “stability in PBS” value ([2]; 24 h incubation) was “purity decreased gradually” and the “stability in PBS” value ([2]; until 1 h) was “slightly decomposed”. For the same molecule, the cell uptake ([3]; H3255, 4 h incubation) was 33.52 % dose/mg protein, the “reduction of accumulation by gefitinib” value ([3]; H3255, gefitinib 100 µM) was “over 50%” and the stability in plasma ([4]; 24 h incubation) was “purity decreased gradually”. For the same molecule, the stability in plasma ([4]; until 1 h) was “slightly decomposed; also recorded: hardly decomposed”, the cell uptake ([5]; H1975, 4 h incubation) was 101.52 % dose/mg protein and the “cell uptake with blocking” value ([5]; H1975, excess CO-1686 (100 µM)) was 45.61 % dose/mg protein. The “effect of gefitinib blocking on accumulation” value ([5]; H1975, gefitinib 100 µM) was “did not reduce”, the “Biodistribution, Blood” value [6, 8] was 1.79 (0.21) % ID/g tissue and the “Biodistribution, Bone” value [6, 8] was 1.07 (0.36) % ID/g tissue. The “Biodistribution, Brain” value [6, 8] was 0.10 (0.02) % ID/g tissue, the “Biodistribution, Heart” value [6, 8] was 1.53 (0.58) % ID/g tissue and the “Biodistribution, Kidney” value [6, 8] was 4.19 (1.28) % ID/g tissue. For the same molecule, the “Biodistribution, Large intestine” value [6, 8] was 8.96 (7.48) % ID/g tissue, the “Biodistribution, Liver” value [6, 8] was 21.77 (2.83) % ID/g tissue and the “Biodistribution, Lung” value [6, 8] was 3.40 (0.93) % ID/g tissue. For the same molecule, the “Biodistribution, Muscle” value [6, 8] was 1.09 (0.42) % ID/g tissue, the “Biodistribution, Pancreas” value [6, 8] was 3.87 (0.87) % ID/g tissue and the “Biodistribution, Small intestine” value [6, 8] was 60.68 (6.67) % ID/g tissue. For the same molecule, the “Biodistribution, Spleen” value [6, 8] was 2.81 (0.77) % ID/g tissue, the “Biodistribution, Stomach” value [6, 8] was 1.44 (0.57) % ID/organ and the “Biodistribution, Blood” value ([6]; i.v., 1 h) was 1.74 (0.18) % ID/g tissue. The “Biodistribution, Bone” value ([6]; i.v., 1 h) was 0.50 (0.40) % ID/g tissue, the “Biodistribution, Brain” value ([6]; i.v., 1 h) was 0.11 (0.08) % ID/g tissue and the “Biodistribution, Heart” value ([6]; i.v., 1 h) was 1.46 (0.31) % ID/g tissue. The “Biodistribution, Kidney” value ([6]; i.v., 1 h) was 5.26 (1.50) % ID/g tissue, the “Biodistribution, Large intestine” value ([6]; i.v., 1 h) was 18.65 (19.88) % ID/g tissue and the “Biodistribution, Liver” value ([6]; i.v., 1 h) was 28.12 (5.43) % ID/g tissue. The “Biodistribution, Lung” value ([6]; i.v., 1 h) was 4.67 (0.85) % ID/g tissue, the “Biodistribution, Muscle” value ([6]; i.v., 1 h) was 0.86 (0.21) % ID/g tissue and the “Biodistribution, Pancreas” value ([6]; i.v., 1 h) was 1.99 (0.52) % ID/g tissue. For the same molecule, the “Biodistribution, Small intestine” value ([6]; i.v., 1 h) was 85.58 (7.68) % ID/g tissue, the “Biodistribution, Spleen” value ([6]; i.v., 1 h) was 3.20 (0.62) % ID/g tissue and the “Biodistribution, Stomach” value ([6]; i.v., 1 h) was 1.04 (0.36) % ID/organ. The “Biodistribution, Blood” value ([6]; i.v., 4 h) was 0.77 (0.07) % ID/g tissue, the “Biodistribution, Bone” value ([6]; i.v., 4 h) was 0.24 (0.20) % ID/g tissue and the “Biodistribution, Brain” value ([6]; i.v., 4 h) was 0.04 (0.02) % ID/g tissue. The “Biodistribution, Heart” value ([6]; i.v., 4 h) was 0.60 (0.67) % ID/g tissue, the “Biodistribution, Kidney” value ([6]; i.v., 4 h) was 1.62 (0.26) % ID/g tissue and the “Biodistribution, Large intestine” value ([6]; i.v., 4 h) was 144.21 (10.97) % ID/g tissue. For the same molecule, the “Biodistribution, Liver” value ([6]; i.v., 4 h) was 12.40 (1.06) % ID/g tissue, the “Biodistribution, Lung” value ([6]; i.v., 4 h) was 1.02 (0.28) % ID/g tissue and the “Biodistribution, Muscle” value ([6]; i.v., 4 h) was 0.27 (0.08) % ID/g tissue. For the same molecule, the “Biodistribution, Pancreas” value ([6]; i.v., 4 h) was 0.49 (0.12) % ID/g tissue, the “Biodistribution, Small intestine” value ([6]; i.v., 4 h) was 9.82 (3.17) % ID/g tissue and the “Biodistribution, Spleen” value ([6]; i.v., 4 h) was 0.71 (0.19) % ID/g tissue. For the same molecule, the “Biodistribution, Stomach” value ([6]; i.v., 4 h) was 0.48 (0.19) % ID/organ, the “Biodistribution, H3255 tumor” value [7, 8] was 1.47 (0.71) % ID/g tissue and the “Biodistribution, H3255 tumor” value ([7]; i.v., 1 h) was 1.63 (0.23) % ID/g tissue. For the same molecule, the “Biodistribution, H3255 tumor” value ([7]; i.v., 1 h, listed as [^125I]ICO1686) was 1.63 ± 0.23 % ID/g tissue and the “Biodistribution, H3255 tumor” value ([7]; i.v., 4 h) was 0.70 (0.13) % ID/g tissue.
